Data published in patent publication US6624141B1, “Protamine fragment compositions and methods of use” (The Regents of The University of Michigan, priority 1999, dated 2003).
Like-named read-outs stand apart in the source and are kept apart here.

How the values were obtained:
[1] = tested on: anti-Xa activity of heparin; test: Heparin neutralization by anti-factor Xa chromogenic assay; assay type: biochemical, human; conditions: heparin 40 μg; half-points of ΔAbs in FIG. 5
Experimental: (§1) Heparin neutralization by protamine and LMWP was also measured in plasma by anti-factor Xa chromogenic assay and activated partial thromboplastin time (aPTT) clotting assay (Yang et al., 1986). In brief, for the anti-factor Xa assay, a series of plasma samples containing 0.4 mg of heparin, 15 IU of ATIII, and various amounts of protamine (0-0.8 mg) or LMWP (0-0.4 mg) were prepared. One hundred microliters of the plasma sample were then mixed with 800 μl of Tris-HCl buffer (pH 7.4), followed by the addition of 100 μl of Factor Xa (7.1 nkat/ml). After a 3 min incubation at 37° C., 200 μl of […] substrate (0.5 mg/ml) were added. The reaction mixture was incubated for 5 min at 37° C. and then quenched by the addition of 200 μl of 20% acetic acid. The absorbance in the solution was measured at 405 nm, and the degree of heparin neutralization is proportional to this measured absorbance.

[2] = cited from earlier work
[3] = cited from earlier work; remark: listed apart in the source
[4] = tested on: anti-Xa activity of CY216 (LMWH); test: Neutralization of LMWH (CY216) by anti-Xa chromogenic substrate assay; assay type: biochemical; conditions: dose of 30 μg
Experimental: as §1
Neutralization of the anticoagulant functions of both heparin and LMWH by protamine and LMWP is studied in human plasma using the aPTT clotting assay and the chromagenic anti-Xa and anti-IIa assays (Yang et al., 1986). The aPTT values of the test samples, are measured using a fibrometer (Fibrosystem; Becton-Dickinson, Cockeysville, Md.), and the anti-Xa and anti-IIa activities are measured using the chromagenic substrates S-2222 and S-2238, respectively. […]

[5] = tested on: aPTT activity of heparin; test: Heparin neutralization by aPTT clotting assay; assay type: biochemical, human; conditions: heparin 1 mg
Experimental: For the aPTT clotting assay, 15 μl of heparin solution (20 μg/ml) was mixed with 15 μl of solution containing various concentrations of protamine (0-60 μg/ml) or LMWP species (0-100 μg/ml). To the mixture, 100 μl of actin cephaloplastin and 100 μl of plasma were added. After 3 min of incubation, 100 μl of 0.02 M calcium chloride (preheated to 37° C.) was added and the clotting time was immediately measured using a fibrometer (Fibrosystem, Becton Dickinson Company, Cockeysville, Md.).

[6] = Binding constant to heparin determined with the heparin sensor
Source text: (§2) With the assistance of the heparin sensor and the methodology described previously (Yun et al., 1993), the inventors were able to determine the binding constant of heparin and LMWH to ATIII, protamine, and LMWP.

[7] = Binding constant to LMWH determined with the heparin sensor
Source text: as §2

[8] = Immunogenicity in mice, IgG antibody production by ELISA; assay type: in vivo; conditions: immunized with 50 μg in CFA plus boosters; ELISA on wells coated with the same species
Experimental: The immunogenicity of protamine and LMWP was examined in mice. The production of polyclonal antibodies was performed as described (Cooper and Paterson, 1991). Fifteen thin-skinned albino mice, ten for protamine and five for LMWP were included. Each mouse was immunized with 50 μg of either protamine or LMWP in the complete Freund's adjuvant (CFA). Four weeks later, animals were bled and first booster was given with 5 μg of protamine (or LMWP) in incomplete Freund's adjuvant (IFA). Second and third boosters were given at two-week intervals. Afterwards, blood was collected, allowed to clot, and centrifuged to collect serum. All sera were tested for IgG antibodies using a modified ELISA method (Singh et al., 1982). Protamine or LMWP was used to coat the wells of the microplate in order to capture their related antibodies. The detection antibody was goat-antimouse-IgG-alkaline phosphatase that was reacted with p-nitrophenylphosphate to produce the absorbance readings at 405 nm. The antigenicity of LMWP was examined by following the same ELISA method described above but by utilizing a LMWP-coated microplate for antibody detection in the protamine-immunized mice.

[9] = Blood glucose control in streptozotocin-diabetic rats; assay type: in vivo; conditions: data from 6 rats
Experimental: Induction of diabetes in rats was carried out by the injection of streptozotocin at a dose of 45 mg/kg body weight. Diabetes was confirmed 24 h after injection by measuring the tail blood glucose with a Lifescan Glucometer (One Touch II).

Protamine
dose required for 50% heparin neutralization [1]: 7 nmol | pKa [2]: about 10 | units of heparin neutralized by each milligram ([3]; heparin derived from bovine lung tissue): approximately 90 units | units of heparin neutralized by each milligram ([3]; heparin derived from porcine intestinal mucosa): ~115 units | neutralization of the anti-Xa activity of CY216 [4]: 60% | amount required to completely neutralize the aPTT activity of heparin [5]: ~1.7 mg | Binding Constant to Heparin [6]: 89.0 ± 2.0 µM⁻¹ | Binding Constant to Heparin ([6]; listed as protamine): 89 µM⁻¹ | Binding Constant to LMWH [7]: 1.1 ± 0.3 µM⁻¹ | Binding Constant to LMWH ([7]; listed as protamine): 1.1 µM⁻¹ | mice with positive reaction for antibodies [8]: 4 out of 10 and four out of ten

insulin
overall time span to preserve a low glucose level [9]: 360 ± 50 min | time required to reach the minimum glucose level [9]: 100 ± 20 min
